In paper PMC9994261 (Cell, 2023):
Converted amounts (≈) assume the structure as drawn. Like-named read-outs stand apart in the source and are kept apart here.

Columns and labels:
[1] = tested on: Mtb ribosome; type: biochemical, Mycobacterium tuberculosis; conditions: read-out: Inhibition of Mtb translation (IC50 μM)
[2] = tested on: Mtb H37Rv; test: microbe, parasite or virus in culture; type: cell-based, Mycobacterium tuberculosis
[3] = tested on: Mtb H37Rv; type: cell-based, Mycobacterium tuberculosis; conditions: 7-day treatment
[4] = type: in vitro ADME
[5] = physchem
[6] = type: in vitro ADME, human
Method: The metabolic stability of test compounds was determined as described.[57]^,[58] Incubation and experimental conditions with human hepatic microsomal fractions (purchased from BD Gentest as a pooled batch from 6 donors) were as follows: microsomal proteins, 1 mg/mL; bovine serum albumin, 1 mg/mL; substrate, 5 μM; incubation duration, 20 min; cytochrome P-450 monooxygenases (CYPs) and flavin containing monooxygenases (FMOs) cofactor, 1 mM NADPH. Enzyme activity was stopped with 1 volume of acetonitrile. […] For each test compound and for each microsomal preparation, three incubations were prepared: absolute reference in buffer (without enzyme material, i.e., microsomes); incubation without NADPH cofactor (with microsomal fractions); and incubation with NADPH (with microsomal fractions). For most compounds, biotransformation, as observed in hepatic microsomal fractions in the presence of the NADPH cofactor, consists of oxidative reactions catalyzed by either CYPs or FMOs. In these conditions, the percentage of total metabolism, which corresponds to oxidative metabolism, was determined as follows: [% total metabolism] ≈ [% oxidative metabolism] = [unchanged compound (UC) peak area − NADPH UC peak area + NADPH] × 100%, where NADPH corresponds to the enzyme cofactor for oxidation reactions catalyzed by either CYP or FMO.

[7] = tested on: Mtb H37Rv; test: MIC80 after overnight pre-incubation of Mtb with subinhibitory macrolide; type: cell-based; conditions: Mycobacterium tuberculosis, read-out: MIC80
[8] = tested on: Mtb H37Rv LuxAB; test: microbe, parasite or virus in culture; type: cell-based; conditions: Mycobacterium tuberculosis
[9] = tested on: GFP-expressing Mtb H37Rv in RAW264.7 macrophages; test: Intramacrophage assay (MIC for Mtb in macrophages); type: cell-based, Mycobacterium tuberculosis; conditions: Mycobacterium tuberculosis, H37RV
[10] = tested on: Mtb H37Rv LuxAB; test: microbe, parasite or virus in culture; type: cell-based; conditions: Mycobacterium tuberculosis; remark: listed apart in the source
[11] = target: T1, CYP3A4 (Homo sapiens, UniProt P08684); test: CYP3A4 reversible inhibition in human liver microsomes; type: in vitro ADME
T1 construct: human liver microsomes (purchased from BD Gentest as a pooled batch from 150 donors); tissue BD Gentest Cat#452117; host or cells: pooled human liver microsomes (150 donors)
Method: Incubations were performed with 0.1 mg/mL human liver microsomes (purchased from BD Gentest as a pooled batch from 150 donors) in a final incubation volume of 0.25 mL. The incubation medium contained 0.05 M phosphate buffer (pH 7.4) containing an NADPH regenerating system (including 1.3 mM NADP, 3.3 mM glucose 6-phosphate,3.3 mM MgCl2, and 1.0 U/mL glucose 6-phosphate dehydrogenase). Probe CYP3A4 substrates (midazolam at 3 μM and testosterone at 50 μM), were incubated for 10 and 30 min, respectively, with increasing concentrations of GM, MGM or CGM (concentration range: 1 - 30 μM). The reaction was stopped by adding acetonitrile to precipitate the proteins. The incubation mixtures were then centrifuged for 5 min at 10,000 × g, and an aliquot of the supernatant was analyzed using high-performance liquid chromatography coupled to mass spectrometry for the assessment of 1’-hydroxymidazolam and 6β-hydroxytestosterone metabolite formation.

[12] = type: in vitro ADME; remark: listed apart in the source
[13] = tested on: Mtb H37Rv; test: Mouse model of acute TB; type: in vivo; conditions: 4 weeks
[14] = in vivo; conditions: male, Swiss, mouse, po; for AUC: oral 30 mg/kg
[15] = tested on: Mtb H37Rv; test: Combination study in mouse model of TB; type: in vivo; conditions: 4 weeks
[16] = tested on: Mtb methylated ribosome; test: Mtb in vitro translation assay with methylated (erythromycin-treated) ribosome; type: biochemical, Mycobacterium tuberculosis; conditions: read-out: Translation inhibition of Mtb methylated ribosome (IC50 μM)
[17] = pH 2, 50% acetonitrile/water
[18] = mouse po 10 mg/kg, PEG200/Tween80/Citrate Buffer 100mM pH4 (70/5/25)
[19] = mouse po 100 mg/kg, Lipidic formulation CremophorRH40/Capryol90/Mygliol812N (10/20/70) diluted in ½ water
[20] = mouse po 100 mg/kg, PEG200/Tween80/Citrate Buffer 100mM pH4 (70/5/25)
[21] = mouse po 300 mg/kg, PEG200/Tween80/Citrate Buffer 100mM pH4 (70/5/25)

T1 sequence (P08684 whole entry): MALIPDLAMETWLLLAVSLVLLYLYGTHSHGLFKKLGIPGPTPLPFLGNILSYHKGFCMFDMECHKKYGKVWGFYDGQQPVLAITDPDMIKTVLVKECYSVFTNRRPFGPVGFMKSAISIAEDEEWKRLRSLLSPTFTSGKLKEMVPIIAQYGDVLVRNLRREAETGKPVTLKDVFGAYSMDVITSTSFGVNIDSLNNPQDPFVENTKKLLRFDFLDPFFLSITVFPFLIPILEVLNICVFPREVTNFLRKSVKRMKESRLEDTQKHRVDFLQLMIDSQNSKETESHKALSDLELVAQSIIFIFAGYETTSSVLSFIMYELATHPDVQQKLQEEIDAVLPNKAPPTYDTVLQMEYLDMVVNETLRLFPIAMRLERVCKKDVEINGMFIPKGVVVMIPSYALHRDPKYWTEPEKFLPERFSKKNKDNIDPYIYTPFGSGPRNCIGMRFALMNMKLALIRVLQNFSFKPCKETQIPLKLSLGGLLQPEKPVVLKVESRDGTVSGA

## CON=C1CC(C)OC(OC2C(C)CC(C)(OC(=O)NC(C)(C)CNS(=O)(=O)c3ccccc3)C(=O)C(C)C(OC(=O)CC(C)C)C(C)C(C(C)COC3OC(C)C(O)C(OC)C3OC)OC(=O)C(C)C(OC3CC(C)N(C)CC(C)O3)C2C)C1O (stereo not drawn) [SEQ-9]
[1]
  IC50: 0.075 µM
[2]; Mycobacterium tuberculosis, ERDMAN / H37Rv, H37Rv/Erdman, read-out: MIC (μM) for Mtb in liquid culture
  MIC: 0.7 µM (≈ 0.87 µg/mL)
[2]; Mycobacterium tuberculosis, H37RV, read-out: MIC for Mtb in liquid culture
  MIC: 0.7 µM (≈ 0.87 µg/mL)
[2]; read-out: MIC for Mtb in liquid culture
  MIC: 0.70 µM (≈ 0.87 µg/mL)
[3]; 30 μM
  log CFU reduction (in vitro bactericidal activity): 1.5 log CFU
[3]; 60 μM
  log CFU reduction (in vitro bactericidal activity): 2.5 log CFU
[4]
  Metabolic stability in mouse liver microsomes (% metabolized compound after 20 min): 8%
[5]
  pKa: 8.3
[6]; 20 min incubation
  Metabolic stability in human liver microsomes (% metabolized compound after 20 min): 10%
[6]; in presence of ketoconazole CYP3A inhibitor (K)
  Metabolic stability in human liver microsomes (% metabolized compound after 20 min), (K): 0(K) %
[6]; in presence of quinidine CYP2D6 inhibitor (Q)
  Metabolic stability in human liver microsomes (% metabolized compound after 20 min), (Q): /10(Q) %
[7]; Without induction
  MIC80: 1 µM (≈ 1.24 µg/mL)
[7]; overnight pre-incubation with SEQ-9 0.125µg/ml
  MIC80: 1 µM (≈ 1.24 µg/mL)
[7]; overnight pre-incubation with SEQ-9 0.25µg/ml
  MIC80: 1 µM (≈ 1.24 µg/mL)
[7]; overnight pre-incubation with clarithromycin 0.125µg/ml
  MIC80: 1 µM (≈ 1.24 µg/mL)
[7]; overnight pre-incubation with clarithromycin 0.25µg/ml
  MIC80: 1 µM (≈ 1.24 µg/mL)
[8]; read-out: MIC (μM) for Mtb in liquid culture + 25% human serum
  MIC: 1.2 µM
[8]; read-out: MIC (μM) for Mtb in liquid culture + 25% mouse serum
  MIC: 2.1 µM
[9]; read-out: MIC (μM) for Mtb in macrophages
  MIC: 0.15 µM (≈ 0.187 µg/mL)
[9]; read-out: MIC for Mtb tuberculosis in macrophages
  MIC: 0.11 µM (≈ 0.137 µg/mL)
[10]; read-out: MIC for Mtb under anaerobic conditions (LORA)
  MIC: 0.6 µM (≈ 0.746 µg/mL)
[10]; read-out: Minimal bactericidal concentration (MBC) for Mtb under anaerobic conditions (LORA)
  MBC: 6.3 µM (≈ 7.83 µg/mL)
[11]
  Cytochrome 3A4 inhibition (in words): abolished
[11]; human, microsomes, pH 7.4, midazolam, read-out: CYP3A4 inhibition, IC50 with midazolam as substrate
  IC50 at 10 min: > 30000 nM
[11]; human, microsomes, pH 7.4, testosterone, read-out: CYP3A4 inhibition, IC50 with testosterone as substrate (T)
  IC50 at 30 min: > 50000 nM
[12]
  Metabolic degradation/clearance from human liver microsomes: 0.03 mL/h/10^6 hepatocytes
[13]; 37.5 to 300 mg/kg oral, 5 days per week, untreated controls died within 4 weeks
  Survival of infected mice: survived at all doses administered
[13]; oral, methylcellulose-Tween formulation
  Minimum effective dose (MED), complete prevention of bacterial growth: 300 mg/kg
[14]
  bioavailability: 23%
[14]; 10 mg/kg, pH 4
  AUC(0-t): 1100 ng·h/mL
  Cmax: 140 ng/mL
[14]; 10 mg/kg, pH 4, Lung t1/2, mouse po 10 mg/kg, PEG200/Tween80/Citrate Buffer 100mM pH4 (70/5/25)
  half-life: 4.5 h
[14]; 10 mg/kg, pH 4, Plasma t1/2, mouse po 10 mg/kg, PEG200/Tween80/Citrate Buffer 100mM pH4 (70/5/25)
  half-life: 3 h
[14]; 30 mg/kg
  Kp: 19
[14]; 30 mg/kg, AUC in lung @30 mg/kg, lung
  AUC: 120000 ng·h/mL
[14]; 30 mg/kg, AUC in plasma @30 mg/kg, plasma
  AUC: 6300 ng·h/mL
[14]; 100 mg/kg
  AUC(0-t): 22000 ng·h/mL
  Cmax: 2130 ng/mL
[14]; 100 mg/kg, Lung t1/2, mouse po 100 mg/kg, Lipidic formulation CremophorRH40/Capryol90/Mygliol812N (10/20/70) diluted in ½ water
  half-life: 4.5 h
[14]; 100 mg/kg, Plasma t1/2, mouse po 100 mg/kg, Lipidic formulation CremophorRH40/Capryol90/Mygliol812N (10/20/70) diluted in ½ water
  half-life: 4.2 h
[14]; 100 mg/kg, pH 4
  AUC(0-t): 11000 ng·h/mL
  Cmax: 1390 ng/mL
[14]; 100 mg/kg, pH 4, Lung t1/2, mouse po 100 mg/kg, PEG200/Tween80/Citrate Buffer 100mM pH4 (70/5/25)
  half-life: 6.5 h
[14]; 100 mg/kg, pH 4, Plasma t1/2, mouse po 100 mg/kg, PEG200/Tween80/Citrate Buffer 100mM pH4 (70/5/25)
  half-life: 4.4 h
[14]; 300 mg/kg, pH 4
  AUC(0-t): 21000 ng·h/mL
  Cmax: 3110 ng/mL
[14]; 300 mg/kg, pH 4, Lung t1/2, mouse po 300 mg/kg, PEG200/Tween80/Citrate Buffer 100mM pH4 (70/5/25)
  half-life: 11 h
[18]
  Lung AUC0-24: 7800 ng·h/mL
  Lung Cmax: 790 ng/mL
[19]
  Lung AUC0-24: 440000 ng·h/mL
  Lung Cmax: 31900 ng/mL
[20]
  Lung AUC0-24: 190000 ng·h/mL
  Lung Cmax: 32900 ng/mL
[21]
  Lung AUC0-24: 840000 ng·h/mL
  Lung Cmax: 252000 ng/mL
Same oral dose of 30 mg/kg in mouse
  Higher plasma AUC compared with SEQ-372: 6 fold
[15]; SEQ-9 300 mg/kg added to B or Pa
  Additional reduction of lung CFU compared with B or Pa alone: approximately 1 log10 CFU
[15]; SEQ-9 300 mg/kg added to L or Z
  Additional reduction of lung CFU compared with L or Z alone: approximately 0.5 log units
[16]
  IC50: 0.064 µM
[17]
  Chemical stability: t/12@pH 2: 48 h
